Laboratory results reported in PMC8756595 (ACS Omega, 2021).

Target: bovine erythrocyte CA II (bCA-II) (Bos taurus, UniProt P00921)
Assay: In vitro carbonic anhydrase inhibition assay
Assay type: biochemical
Conditions: for % inhibition: bCA-II, substrate 4-NPA, 25 °C, pH 7.4, test concentration not given; for inhibition activity against bCA-II (in words): qualitative statement

bovine erythrocyte CA II (bCA-II), sequence (P00921 whole entry): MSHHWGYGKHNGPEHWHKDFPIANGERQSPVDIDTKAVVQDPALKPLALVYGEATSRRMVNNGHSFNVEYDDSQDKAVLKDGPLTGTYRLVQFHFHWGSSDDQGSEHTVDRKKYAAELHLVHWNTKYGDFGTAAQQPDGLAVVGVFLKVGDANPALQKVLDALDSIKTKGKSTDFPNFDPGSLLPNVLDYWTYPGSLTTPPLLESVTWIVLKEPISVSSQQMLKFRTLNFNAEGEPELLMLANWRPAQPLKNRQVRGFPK

| SMILES | IC50 | % inhibition | inhibition activity against bCA-II (in words) |
| --- | --- | --- | --- |
| CCCSc1nc2ccccc2n1CC(=O)NN=Cc1cccc(OC)c1OC [Compound 27, N′-(2,3-Dimethoxybenzylidene)-2-(2-(propylthio)-1H-benzo[d]imidazol-1-yl)acetohydrazide] | 55.6 ± 4.25 µM | 89.6% | least active inhibitors |
| CCCSc1nc2ccccc2n1CC(=O)NN=Cc1ccccc1 [Compound 10, N′-Benzylidene-2-(2-(propylthio)-1H-benzo[d]imidazol-1-yl)acetohydrazide] | 17.2 ± 1.24 µM | 83.0% |  |
| CCCSc1nc2ccccc2n1CC(=O)NN=Cc1cccc2ccccc12 [Compound 12, N′-(Naphthalen-1-ylmethylene)-2-(2-(propylthio)-1H-benzo[d]imidazol-1-yl)acetohydrazide] | 14.6 ± 0.62 µM | 91.7% |  |
| CCCSc1nc2ccccc2n1CC(=O)NN=Cc1c(Cl)cccc1Cl [Compound 28, N′-(2,6-Dichlorobenzylidene)-2-(2-(propylthio)-1H-benzo[d]imidazol-1-yl)acetohydrazide] | 42.1 ± 1.39 µM | 67.6% | least active inhibitors |
| CCCSc1nc2ccccc2n1CC(=O)NN=Cc1ccco1 [Compound 25, N′-(Furan-2-ylmethylene)-2-(2-(propylthio)-1H-benzo[d]imidazol-1-yl)acetohydrazide] | 193 ± 3.24 µM | 57.0% | least active inhibitors |
| CCCSc1nc2ccccc2n1CC(=O)NN=Cc1ccc(O)cc1O [Compound 14, N′-(2,4-Dihydroxybenzylidene)-2-(2-(propylthio)-1H-benzo[d]imidazol-1-yl)acetohydrazide] |  | 20.8% | inactive |
| CCCSc1nc2ccccc2n1CC(=O)NN=Cc1ccccc1OC [Compound 29, N′-(2-Methoxybenzylidene)-2-(2-(propylthio)-1H-benzo[d]imidazol-1-yl)acetohydrazide] | 21 ± 0.74 µM | 88.2% |  |
| CCCSc1nc2ccccc2n1CC(=O)NN=Cc1ccc(N(CC)CC)cc1 [Compound 16, N′-(4-(Diethylamino)benzylidene)-2-(2-(propylthio)-1H-benzo[d]imidazol-1-yl)acetohydrazide] |  | 5.6% | inactive |
| CCCSc1nc2ccccc2n1CC(=O)NN=Cc1ccc(O)c(OCC)c1 [Compound 20, N′-(3-Ethoxy-4-hydroxybenzylidene)-2-(2-(propylthio)-1H-benzo[d]imidazol-1-yl)acetohydrazide] | 45.5 ± 2.07 µM | 67.7% | least active inhibitors |
| CCCSc1nc2ccccc2n1CC(=O)NN=Cc1ccc(OC)c(OC)c1 [Compound 13, N′-(3,4-Dimethoxybenzylidene)-2-(2-(propylthio)-1H-benzo[d]imidazol-1-yl)acetohydrazide] |  | 38.1% | inactive |
| CCCSc1nc2ccccc2n1CC(=O)NN=Cc1cccs1 [Compound 23, 2-(2-(Propylthio)-1H-benzo[d]imidazol-1-yl)-N′-(thiophen-2-ylmethylene)acetohydrazide] | 24.8 ± 1.24 µM | 89.8% |  |
| CCCSc1nc2ccccc2n1CC(=O)NN=Cc1ccc(C(C)C)cc1 [Compound 22, N′-(4-Isopropylbenzylidene)-2-(2-(propylthio)-1H-benzo[d]imidazol-1-yl)acetohydrazide] | 24.7 ± 3 µM | 90.1% |  |
| CCCSc1nc2ccccc2n1CC(=O)NN=Cc1cccc(OC)c1 [Compound 11, N′-(3-Methoxybenzylidene)-2-(2-(propylthio)-1H-benzo[d]imidazol-1-yl)acetohydrazide] |  | 22.8% | inactive |
| CCCSc1nc2ccccc2n1CC(=O)NN=Cc1ccc(O)c(OC)c1 [Compound 18, N′-(4-Hydroxy-3-methoxybenzylidene)-2-(2-(propylthio)-1H-benzo[d]imidazol-1-yl)acetohydrazide] | 22.7 ± 1.37 µM | 81.2% |  |
| CCCSc1nc2ccccc2n1CC(=O)NN=Cc1ccc(C=O)cc1 [Compound 21, N′-(4-Formylbenzylidene)-2-(2-(propylthio)-1H-benzo[d]imidazol-1-yl)acetohydrazide] |  | 42.2% | inactive |
| CCCSc1nc2ccccc2n1CC(=O)NN=Cc1cccc(O)c1 [Compound 17, N′-(3-Hydroxybenzylidene)-2-(2-(propylthio)-1H-benzo[d]imidazol-1-yl)acetohydrazide] | 31.4 ± 2.29 µM | 90.7% | least active inhibitors |
| CCCSc1nc2ccccc2n1CC(=O)NN=Cc1cccc(OC)c1O [Compound 9, N′-(2-Hydroxy-3-methoxybenzylidene)-2-(2-(propylthio)-1H-benzo[d]imidazol-1-yl)acetohydrazide] | 13.3 ± 1.25 µM | 89.1% |  |
| CCCSc1nc2ccccc2n1CC(=O)NN=Cc1ccc(C)cc1 [Compound 19, N′-(4-Methylbenzylidene)-2-(2-(propylthio)-1H-benzo[d]imidazol-1-yl)acetohydrazide] |  | 13.6% | inactive |
| CCCSc1nc2ccccc2n1CC(=O)NN=Cc1ccc(OC)cc1OC [Compound 15, N′-(2,4-Dimethoxybenzylidene)-2-(2-(propylthio)-1H-benzo[d]imidazol-1-yl)acetohydrazide] | 14.5 ± 1.05 µM | 91.2% |  |
| CCCSc1nc2ccccc2n1CC(=O)NN=Cc1ccc(C)o1 [Compound 26, N′-((5-Methylfuran-2-yl)methylene)-2-(2-(propylthio)-1H-benzo[d]imidazol-1-yl)acetohydrazide] | 166 ± 1.61 µM | 67.8% | least active inhibitors |
| CCCSc1nc2ccccc2n1CC(=O)NN=Cc1ccc(F)cc1 [Compound 24, N′-(4-Fluorobenzylidene)-2-(2-(propylthio)-1H-benzo[d]imidazol-1-yl)acetohydrazide] | 162 ± 3.54 µM | 84.3% | least active inhibitors |
